Experimental findings from publication PMC6120666 (The EMBO Journal, 2018) are described below.

Bounds are passed on as bounds.

As a reminder, the IC50 is the concentration that gives 50% inhibition.

For one test, the system named is RAW264.7 cells. The test is described as follows: TNF ELISA, MDP-stimulated RAW264.7 cells. It is filed as cell-based. The conditions noted are these: Mus musculus, MDP 10 μg/ml, 24 h, read-out: RAW264.7 TNF release inhibition Est. IC50. On the procedure: Figure 4 Cellular and in vivo characterization of novel RIPK2 inhibitors on inflammatory signaling • A, B ELISA measurement of TNF release from RAW264.7 cells treated with MDP (10 μg/ml, 24 h) and CSLP compounds or RIPK2 inhibitor WEHI‐345 as indicated. […] After 4 h, blood was collected by cardiac puncture and circulating levels of TNF were analyzed by ELISA. Data information: Data represent the mean ± SEM of three independent experiments. **P < 0.01, n.s., not significant. Two‐tailed unpaired Student's t‐test was used to determine statistical significance. See also Fig EV3. TEXT PRINTED IN THE PICTURE: (B) CSLP37: RAW264.7 TNF release inhibition Est. IC50 (nM): 12.6; RAW264.7 TNF release inhibition St. Err.: ±1.7 | (B) CSLP43: RAW264.7 TNF release inhibition Est. IC50 (nM): 1.2; RAW264.7 TNF release inhibition St. Err.: ±0.2 | (B) CSLP48: RAW264.7 TNF release inhibition Est. IC50 (nM): NI; RAW264.7 TNF release inhibition St. Err.: ±0.2 | (B) CSLP55: RAW264.7 TNF release inhibition Est. IC50 (nM): 143.0; RAW264.7 TNF release inhibition St. Err.: ±27.1 | (B) WEHI-345: RAW264.7 TNF release inhibition Est.
Cayman Chemical Company, Ann Arbor, MI), GSK583 (#HY-100339, MedChem Express, South Brunswick, NJ), WEHI-345 (MedKoo Biosciences, Morrisville, NC), Compound A (CpA, a kind gift from TetraLogic Pharmaceuticals, Malvern, PA). Generation of the CSLP compound series is described in Suebsuwong et al. 2018 (manuscript in preparation). […]
RAW264.7 cells were seeded into 12 well plates at a density of 1.5x10^5 cells/well in 1 ml of media.
Inhibitors were diluted and added in 1 μl DMSO 15 min prior to the addition of 10 μg/ml MDP or 10 ng/ml E. coli LPS for 24 h. For TNF measurements, 100 μl of undiluted media (MDP) or 5-fold diluted media was analyzed using Duo-Set anti-mouse TNF ELISA kit (R&D Systems, Minneapolis, MN).
Values of media-only wells were subtracted and %inhibition for each compound concentration relative to the DMSO/MDP (or LPS)-treated controls were calculated. Inhibition values + StDev were fitted by non-linear regression using Prism software (GraphPad) to calculate IC50 values. […]
Background: ELISA stands for enzyme-linked immunosorbent assay.
For `CCCS(=O)(=O)Nc1cc(-c2cc(-c3ccc(N4CCNCC4)cc3)cnc2N)cc(F)c1OC` [CSLP37], the 50% inhibitory concentration (IC50) amounted to 12.6 nM.

For the molecule `CCCS(=O)(=O)Nc1cc(-c2cc(-c3ccc(N4CCNCC4)cc3)cnc2N)cc(OC)c1OC` [CSLP43], the half-inhibitory concentration (IC50) is 1.2 nM.

As for `CCCS(=O)(=O)Nc1cc(-c2cc(-c3ccc(N4CCNCC4)cc3)cnc2N)ccc1O` [CSLP48], the IC50 was > 1000 nM.

As for `COc1cc(-c2cc(-c3ccc(N4CCNCC4)cc3)cnc2N)cc(F)c1OC` [CSLP55], the IC50 came out at 143 nM.

As for `Cc1ccc(-c2nn(C(C)(C)CNC(=O)c3ccncc3)c3ncnc(N)c23)cc1` [WEHI‐345, reference compound], the concentration for half-maximal inhibition (IC50) was 123 nM.

In the next test the test system is NOD2/HEKBlue cells. Kind of test: hNOD2-HEKBlue L18-MDP-induced NF-κB reporter assay. It is filed as cell-based, human. The conditions noted are these: Homo sapiens, HEK-Blue; L18-MDP-induced NF-κB reporter; average ± SD of at least three titrations. On the procedure:
For HEKBlue assay, cells were seeded into clear 96‐well plates at 7.5 × 10^3 cells/well and allowed to attach for 48 h. On the day of the experiment, media was changed to 100 μl of HEKBlue detection media (InvivoGen). Inhibitors were diluted and added in 0.5 μl DMSO 15 min prior to the addition of 1 ng/ml L18‐MDP (InvivoGen). After 8–9 h, absorbance at 620 nm was measured using Victor3V plate reader (Perkin Elmer, Waltham, MA). Values of media‐only wells were subtracted and %inhibition for each compound concentration relative to the DMSO/L18‐MDP‐treated controls was calculated. Inhibition values ± SD were fitted by non‐linear regression using Prism software (GraphPad Software, La Jolla, CA) to calculate IC50 values. For THP1Blue assay, 1 × 10^5 cells were seeded in 200 μl of RPMI media in 96‐well plates and treated with inhibitors in 0.5 μl DMSO for 15 min prior to the addition of 10 μg/ml MDP, 10 ng/ml Pam3CSK4, 10 ng/ml E. coli LPS, or 1 × 10^7 cells/ml heat‐killed L. monocytogenes (InvivoGen) for 24 h. After induction, 20 μl of media was mixed with 180 μl of QUANTI‐Blue reagent (InvivoGen) and incubated at 37°C for 3–4 h, followed by absorbance measurement at 620 nm. IC50 values were calculated as described for HEKBlue assay.
Cayman Chemical Company, Ann Arbor, MI), GSK583 (#HY-100339, MedChem Express, South Brunswick, NJ), WEHI-345 (MedKoo Biosciences, Morrisville, NC), Compound A (CpA, a kind gift from TetraLogic Pharmaceuticals, Malvern, PA). Generation of the CSLP compound series is described in Suebsuwong et al. 2018 (manuscript in preparation). hNOD2-HEKBlue and THP1Blue assays
For HEKBlue assay, cells were seeded into clear 96 well plates at 7.5x10^3 cells/well and allowed to attach for 48 h. On the day of the experiment, media was changed to 100 μl of HEKBlue detection media (InvivoGen). Inhibitors were diluted and added in 0.5 μl DMSO 15 min prior to the addition of 1 ng/ml L18-MDP (InvivoGen). After 8-9 h, absorbance at 620 nm was measured using Victor3V plate reader (Perkin Elmer, Waltham, MA). Values of media-only wells were subtracted and %inhibition for each compound concentration relative to the DMSO/L18-MDP-treated controls were calculated.
Inhibition values + StDev were fitted by non-linear regression using Prism software (GraphPad Software, La Jolla, CA) to calculate IC50 values. For THP1Blue assay, 1x10^5 cells were seeded in 200 μl of RPMI media in 96 well plates and treated with inhibitors in 0.5 μl DMSO 15 min prior to the addition of 10 µg/ml MDP, 10 ng/ml Pam3CSK4, 10 ng/ml E. coli LPS or 1x10^7 cells/ml heat-killed L. monocytogenes (InvivoGen) for 24 h. After induction, 20 μl of media was mixed with 180 μl of QUANTI-Blue reagent (InvivoGen) and incubated at 37 °C for 3-4 h, followed by absorbance measurement at 620 nm. IC50 values were calculated as described for HEKBlue assay. […]
On the technique in general: Reporter assays use an easily measured gene product as a stand-in for the process of interest.
`CCCS(=O)(=O)Nc1cc(-c2cc(-c3ccc(N4CCNCC4)cc3)cnc2N)cc(F)c1OC` [CSLP37]: the 50% inhibitory concentration (IC50) stood at 26.3 ± 3.7 nM.

For the molecule `CCCS(=O)(=O)Nc1cc(-c2cc(-c3ccc(N4CCNCC4)cc3)cnc2N)cc(OC)c1OC` [CSLP43], the midpoint of inhibition, the IC50, lay at 1.3 ± 0.4 nM.

For the molecule `CCCS(=O)(=O)Nc1cc(-c2cc(-c3ccc(N4CCNCC4)cc3)cnc2N)ccc1O` [CSLP48], the IC50 was > 5000 nM.

`COc1cc(-c2cc(-c3ccc(N4CCNCC4)cc3)cnc2N)cc(F)c1OC` [CSLP55]: the half-inhibitory concentration (IC50) was 595 ± 69.6 nM.

As for `Cc1ccc(-c2nn(C(C)(C)CNC(=O)c3ccncc3)c3ncnc(N)c23)cc1` [WEHI‐345, reference compound], inhibition was half-maximal at 3370 nM (IC50).

The same test, now with this note: Table 1; Fig 4A.
For `Cc1ccc(-c2nn(C(C)(C)CNC(=O)c3ccncc3)c3ncnc(N)c23)cc1` [WEHI‐345, reference compound], the “fold lower cellular potency than against RIPK2 kinase in vitro” value was > 10 fold.
